Experimental data: US11324720B2, “Antiproliferative DNA polymerase inhibitor” (NEW YORK MEDICAL COLLEGE, priority 2018, dated 2022)

Assays:
HCC1395 cells = test: MTT assay with PARP inhibitors with or without zelpolib; type: cell-based, human; conditions: for sensitivity of HCC1395 cells to the PARP inhibitor alone: HR-proficient triple-negative breast cancer cell line
Description: However, there have been minimal clinical benefits for HR-proficient cancers^37-41. Since zelpolib can inhibit HR, we explored the effect of zelpolib in combination with PARP inhibitors on HR-proficient cancer cells. The hypothesis is that zelpolib will lead to an HR-defect through inhibition of Pol δ and render HR-proficient cells sensitive to PARP inhibition. […] The cells were treated with increasing concentrations of PARP inhibitor Niraparib (FIG. 5B) or Rucaparib (FIG. 5C) in the absence or presence of 2.5 μM zelpolib for 48 hrs. The number of cells were then analyzed by MTT assay.
(§1) Human cancer cells (5×10^3-7.5×10^3) were initially seeded in 96-well plates (Cellstar) containing 0.2 ml media per well. After 24 hrs, these cells were treated with variable concentrations drug combinations for 48-72 hrs. Subsequently, 4,5-dimethylthiazol-2-yl-2,5-diphenyltetrazolium bromide (MTT) (20 μl of 5 mg/ml) was added to each well for 3 hrs. Formazan crystals were then dissolved in 150 μl DMSO and optical density was read at 490 nm^25. All experiments were performed in triplicates. Results were analyzed by GraphPad Prism. Data represent mean value±SEM for each concentration of inhibitor combinations.

MCF7 cells = test: Cell proliferation assay, MTT method; type: cell-based, human; conditions: 72 h
Text: DNA replication precedes cell division. Thus, cancer cells cannot divide and proliferate without successful chromosomal duplication. A DNA polymerase inhibitor should inhibit cancer cell proliferation. We characterized the antiproliferative properties of zelpolib on a number of cell lines originated from pancreatic cancer (BxPC-3) and breast cancer (MCF7 for ER+ breast cancer). In addition, we developed a cisplatin resistant subline of a pancreatic cancer cell line, R-BxPC3 for our studies as well. We used the MTT method^25 for analyzing cell proliferation. This assay is based on the reduction of 3-(4,5-dimethylthiazol-2-yl)-2,5-diphenyltetrazolium bromide by live cells to an insoluble formazon, which were subsequently dissolved in DMSO and quantified by UV absorbance. Therefore, the cell number is proportional to the optical density in the established linear region. […] The plateau phenomena indicate inhibition of proliferation without cell killing, similar to these observed from hydroxyurea^26, aphidicolin^27, and to a certain extent, methotrexate treatments^28. Direct inhibition of DNA polymerase activity provides a unique mechanism that is not employed by any of the current cancer therapeutics. We selected a number of most widely prescribed chemotherapeutics with distinct mechanisms to compare their antiproliferative potential in the 2 cancer cell lines. We included alkylating agent cisplatin, antimetabolites methotrexate and 5-flourouracil (5FU)^29-31. […] Whereas the comparison with cisplatin is biphasic.
as §1

[1] = test system: BRCA1/2 mutant population; conditions: maintenance therapy; cited from earlier work

CNCc1ccc(-c2[nH]c3cc(F)cc4c3c2CCNC4=O)cc1 [Rucaparib]
sensitivity of HCC1395 cells to the PARP inhibitor alone (HCC1395 cells): insensitive

N.N.[Cl][Pt][Cl] [cisplatin, reference compound]
antiproliferative activity, zelpolib versus cisplatin (MCF7 cells): more effective beyond 5 μM

O=C(c1cc(Cc2n[nH]c(=O)c3ccccc23)ccc1F)N1CCN(C(=O)C2CC2)CC1 [olaparib]
hazard ratio in progression-free survival [1]: 0.18
reduction in the risk of progression or death [1]: 82%

NC(=O)c1cccc2cn(-c3ccc([C@@H]4CCCNC4)cc3)nc12 [Niraparib]
Niraparib concentration with 2.5 μM zelpolib that achieves the effect of 25 μM Niraparib alone (HCC1395 cells; HCC1395 proliferation, 48 hrs): 5 µM
sensitivity of HCC1395 cells to the PARP inhibitor alone (HCC1395 cells): insensitive
